Experimental findings from patent publication US4336263A, “1,4-Cycloalkano-oxazepines, salts thereof and analgesic uses thereof” (priority 1978, dated 1982) are described below.

Like-named read-outs stand apart in the source and are kept apart here.

Data set [1] can be described thus: acute lethal dose (LD 50) for intraperitoneal administration. The data set is classed as in vivo. The note with it: for Relative toxicity: Nefopam = 1.00. An excerpt: The comparatively low toxicity of the novel compounds can also be deduced from the acute lethal dose (LD 50) for intraperitoneal administration (Table 2). The LD 50 values are from about 90% to 240% higher than those of Nefopam.

The subject of data set [2] is female mice (NMRI strain). In words: animal or person. The data set is classed as in vivo. The note with it: for ED (100%): Mus musculus, 0.5 h; for ED (100%) / ED 100% (dose which increases the reaction time by 100%): 30 minutes after administration; for Q (enteral activity: quotient of ED 100% for intraperitoneal and oral administration): i.p. ED 100% / oral ED 100%, 30 min; for Maximum action, Δ% (increase in reaction time): maximum increase without fatalities. On the procedure:
(§1) The model used for testing the analgesic action was the tail flick test of D'AMOUR and SMITH (J. Pharmacol. 72 (1941), 74-79). In this experiment, the compounds to be tested were administered intraperitoneally or orally, as aqueous solutions (injection volume 10 ml/kg) to groups of 10 female mice (NMRI strain) weighing 20-22 g each.
(§2) Pain reactions are caused before, and 30 minutes after, the administration of the compound, by means of thermal irritation (the tail being exposed to focused heat radiation from a halogen lamp for at most 30 seconds).
(§3) The time until the tail is drawn out of the radiation zone by reflex action is measured, and taken as the reaction time. Its average value, for 670 untreated animals, is 6.5±0.29 sec.
(§4) Analgesic substances increase the reaction time, to an extent depending on the dose. There is a linear relationship between the logarithms of the doses (mg/kg) and of the relative increase in reaction time (Δ%), from which the dose, defined as the ED 100%, which doubles the reaction time can be calculated by means of regression analysis. For a radiation exposure period of at most 30 seconds, the maximum possible increase in the reaction time is about 360%.

The nature of another data set: in vivo. The note with it: mouse, in vivo, read-out: treated animals killed. The data set is classed as in vivo, mice (NMRI strain). As to the method: as §1, §2, §3, §4
[3] abbreviates: ip, read-out: ED 100% (dose which increases the reaction time by 100%), intraperitoneal administration.
[4] abbreviates: po, read-out: ED 100% (dose which increases the reaction time by 100%), oral administration.
[5] abbreviates: intraperitoneal administration, Nefopam = 1.00.
[6] abbreviates: intraperitoneal administration, dose of maximum action.
Setting [7] is: oral administration, Nefopam = 1.00.
Where [8] appears, read: oral administration, dose of maximum action.

Take `COc1cccc([C@@]23CCCC[C@@H]2CN(C)CCO3)c1` (relative stereo) [Example 3, 4-methyl-9a-(3-methoxyphenyl)-perhydro-1,4-benzoxazepine]: the Relative toxicity in data set [1] is on record as 0.52. In addition, in data set [1] (in vivo, ip, read-out: LD 50), the LD50 was determined as 110 mg/kg. The values for the ED (100%) in data set [2] (setting [3]) and in data set [2] (setting [4]) were 11.4 mg/kg and 17 mg/kg, respectively. Moreover, the “Q (enteral activity: quotient of ED 100% for intraperitoneal and oral administration)” value in data set [2] came to 0.67. The relative activity in data set [2] (setting [5]) was determined as 0.71; in data set [2] (setting [7]), 2.73. In addition, the “Maximum action, mg/kg (dose)” value is reported as 46.4 mg/kg in data set [2] (setting [6]) and 100 mg/kg in data set [2] (setting [8]). For the same compound, the entries for the “Maximum action, Δ% (increase in reaction time)” value in data set [2] (intraperitoneal administration) and in data set [2] (oral administration) were 416% and 397%, respectively.
For `COc1cccc([C@@]23CCC[C@@H]2CN(C)CCO3)c1` (relative stereo) [Example 6], in data set [1], the Relative toxicity amounted to 0.45. Further, the LD50 in data set [1] (in vivo, ip, read-out: LD 50) came out at 127 mg/kg. Besides, the ED (100%) in data set [2] (setting [3]) is 4.66 mg/kg; in data set [2] (setting [4]), 9.49 mg/kg. In data set [2], the “Q (enteral activity: quotient of ED 100% for intraperitoneal and oral administration)” value was determined as 0.49. The relative activity in data set [2] (setting [5]) came to 1.73; in data set [2] (setting [7]) it was 4.89. For the same compound, the “Maximum action, mg/kg (dose)” value in data set [2] (setting [6]) and in data set [2] (setting [8]) was 46.4 mg/kg throughout. Besides, the “Maximum action, Δ% (increase in reaction time)” value worked out at 380% in data set [2] (intraperitoneal administration) and 364% in data set [2] (oral administration).
`CC(=O)Oc1cccc([C@@]23CCCC[C@@H]2CN(C)CCO3)c1` (relative stereo) [Example 7 β, 4-Methyl-9a-(3-acetoxyphenyl)-perhydro-1,4-benzoxazepine] registered a Relative toxicity in data set [1] of 0.30. In addition, in data set [1] (in vivo, ip, read-out: LD 50), the LD50 stood at 194 mg/kg. For the same compound, the ED (100%) in data set [2] (setting [3]) is 12.6 mg/kg; in data set [2] (setting [4]), 13.1 mg/kg. Besides, the “Q (enteral activity: quotient of ED 100% for intraperitoneal and oral administration)” value in data set [2] is 0.96. For the same compound, the entries for the “Maximum action, Δ% (increase in reaction time)” value in data set [2] (intraperitoneal administration) and in data set [2] (oral administration) were 275% and 280%, respectively. The “Maximum action, mg/kg (dose)” value in data set [2] (mouse, in vivo, ip) is given as 46.4 mg/kg; in data set [2] (mouse, in vivo, po), 100 mg/kg. Besides, the relative activity in data set [2] (mouse, in vivo, ip) is recorded as 0.64; in data set [2] (setting [7]) it was 3.54.
In the case of `CN1CCO[C@]2(c3cccc(O)c3)CCCC[C@@H]2C1` (relative stereo) [Example 7, 4-Methyl-9a-(3-hydroxyphenyl)-perhydro-1,4-benzoxazepine], the Relative toxicity in data set [1] turned out to be 0.35. For the same compound, the LD50 in data set [1] (in vivo, ip, read-out: LD 50) turned out to be 165 mg/kg. Besides, the ED (100%) in data set [2] (setting [3]) stood at 6.55 mg/kg; in data set [2] (setting [4]), 18.6 mg/kg. In addition, the “Q (enteral activity: quotient of ED 100% for intraperitoneal and oral administration)” value in data set [2] was determined as 0.35. Also, the relative activity amounted to 1.23 in data set [2] (setting [5]) and 2.50 in data set [2] (setting [7]). The “Maximum action, mg/kg (dose)” value in data set [2] (setting [6]) and in data set [2] (setting [8]) was 46.4 mg/kg each time. For the same compound, the “Maximum action, Δ% (increase in reaction time)” value came out at 364% in data set [2] (intraperitoneal administration) and 332% in data set [2] (oral administration).
As to `COc1cccc([C@@]23CCCC[C@@H]2CN(C)CCO3)c1` (single isomer, unassigned) [9 (+), (+)-4-Methyl-9a-(3-methoxyphenyl)-perhydro-1,4-benzoxazepine], the “LD50” value in data set [1] is given as 110 mg/kg. The same compound returned a Relative toxicity in data set [1] of 0.52. Moreover, the “Q (enteral activity: quotient of ED 100% for intraperitoneal and oral administration)” value in data set [2] is listed as 0.71. Besides, the “ED 100% (dose which increases the reaction time by 100%)” value in data set [2] (intraperitoneal administration) was found to be 16.7 mg/kg; in data set [2] (oral administration) it was 23.5 mg/kg. In addition, the relative activity was 0.48 in data set [2] (setting [5]) and 1.97 in data set [2] (setting [7]). Also, the “Maximum action, mg/kg (dose)” value in data set [2] (setting [6]) is listed as 46.4 mg/kg; in data set [2] (setting [8]), 100 mg/kg. For the same compound, the “Maximum action, Δ% (increase in reaction time)” value in data set [2] (intraperitoneal administration) is reported as 249%; in data set [2] (oral administration), 370%.
Compound `COc1cccc([C@@]23CCCC[C@@H]2CN(C)CCO3)c1` (single isomer, unassigned) [9 (-), (-)-4-Methyl-9a-(3-methoxyphenyl)-perhydro-1,4-benzoxazepine] returned a Relative toxicity in data set [1] of 0.40. In data set [1] (in vivo, ip, read-out: LD 50), the LD50 came out at 145 mg/kg. The ED (100%) in data set [2] (setting [3]) is 11 mg/kg; in data set [2] (setting [4]) it was 17.6 mg/kg. In addition, in data set [2], the “Q (enteral activity: quotient of ED 100% for intraperitoneal and oral administration)” value is 0.63. For the same compound, the “Maximum action, Δ% (increase in reaction time)” value in data set [2] (intraperitoneal administration) turned out to be 348%; in data set [2] (oral administration), 397%. Also, the “Maximum action, mg/kg (dose)” value in data set [2] (mouse, in vivo, ip) was determined as 46.4 mg/kg; in data set [2] (mouse, in vivo, po) it was 100 mg/kg. Besides, the relative activity is recorded as 0.74 in data set [2] (mouse, in vivo, ip) and 2.64 in data set [2] (setting [7]).
In data set [1], `CN1CCOC(c2ccccc2)c2ccccc2C1` (centres unmarked) [Nefopam, 5-methyl-1-phenyl-3,4,5,6-tetrahydro-1H-benz[f]-2,5-oxazocine, reference compound] showed a Relative toxicity of 1.00. The LD50 in data set [1] (in vivo, ip, read-out: LD 50) was found to be 57.3 mg/kg. Also, the mortality in the data set “in vivo” (ip, 46.4 mg/kg administered intraperitoneally) was found to be 60%; in the data set “in vivo” (po, 100 mg/kg administered orally), 60%. The animals died in data set [2] (46.4 mg/kg intraperitoneally) and in data set [2] (100 mg/kg orally) was 6 out of 10 animals throughout. In addition, the ED (100%) was 46.4 mg/kg in data set [2] (oral administration, read-out: ED 100% (dose which increases the reaction time by 100%)) and 8.08 mg/kg in data set [2] (ip, intraperitoneal administration, read-out: ED 100% (dose which increases the reaction time by 100%)). Further, in data set [2], the “Q (enteral activity: quotient of ED 100% for intraperitoneal and oral administration)” value came to 0.17. Further, the “Maximum action, mg/kg (dose)” value in data set [2] (setting [6]) was 21.5 mg/kg; in data set [2] (setting [8]), 46.4 mg/kg. In addition, the “Maximum action, Δ% (increase in reaction time)” value in data set [2] (intraperitoneal administration) amounted to 192%; in data set [2] (oral administration), 93%. This compound yielded a relative activity in data set [2] (setting [7]) of 1.00.
